Measured values from PubChem BioAssay (NCI).
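Growth conditions: 96-well plates. Treatment: test compound, 48 hours, 5 concentrations. Analysis: linear interpolation between bracketing concentrations; unreached endpoints set to highest concentration. Abbreviation: GI50, concentration required for 50% inhibition of growth. TGI is the concentration that stops growth completely.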

What was measured:
Assay in all cases: inhibition of tumour cell growth, NCI panel, 48 h
UO-31 renal = tested on: UO-31 renal
ACHN renal = tested on: ACHN renal
OVCAR-8 ovarian = tested on: OVCAR-8 ovarian
MALME-3M melanoma = tested on: MALME-3M melanoma
OVCAR-4 ovarian = tested on: OVCAR-4 ovarian
A498 renal = tested on: A498 renal
NCI-H226 lung = tested on: NCI-H226 lung
SK-MEL-28 melanoma = tested on: SK-MEL-28 melanoma
MDA-MB-435 = tested on: MDA-MB-435
MCF7 breast = tested on: MCF7 breast

| Structure (SMILES) | TGI (UO-31 renal) [µM] | TGI (ACHN renal) [µM] | TGI (OVCAR-8 ovarian) [µM] | TGI (MALME-3M melanoma) [µM] | TGI (OVCAR-4 ovarian) [µM] | TGI (A498 renal) [µM] | TGI (NCI-H226 lung) [µM] | TGI (SK-MEL-28 melanoma) [µM] | GI50 (UO-31 renal) [µM] | GI50 (MDA-MB-435) [µM] | TGI (MDA-MB-435) [µM] | GI50 (OVCAR-8 ovarian) [µM] | GI50 (MALME-3M melanoma) [µM] | GI50 (OVCAR-4 ovarian) [µM] | GI50 (SK-MEL-28 melanoma) [µM] | GI50 (A498 renal) [µM] | GI50 (NCI-H226 lung) [µM] | GI50 (ACHN renal) [µM] | GI50 (MCF7 breast) [µM] | TGI (MCF7 breast) [µM] |
| --- | --- | --- | --- | --- | --- | --- | --- | --- | --- | --- | --- | --- | --- | --- | --- | --- | --- | --- | --- | --- |
| Oc1c(C(Nc2cccc3cccnc23)c2ccccc2)ccc2cccnc12 (stereo not drawn) | > 100 | > 100 | 21.3 | > 100 | > 100 | 66.6 | 9.79 | – | – | – | – | – | – | – | – | – | – | – | – | – |
| O=[N+]([O-])c1cc(C(F)(F)F)cc([N+](=O)[O-])c1CCl | 20.6 | 27.9 | 4.91 | 13.1 | 3.69 | 38 | 3.11 | 17.9 | – | – | – | – | – | – | – | – | – | – | – | – |
| COc1cnc2c(c1)C(=O)c1c-2n(CCCn2ccnc2)c(=O)c2cc(F)ccc12 | 0.147 | – | 13.9 | 0.619 | 1.63 | 0.218 | 0.213 | 1.3 | < 0.01 | 0.121 | 0.832 | 0.0151 | 0.193 | 0.118 | 0.191 | 0.0508 | 0.0251 | – | – | – |
| C[C@H]1[C@H](C)CC[C@]2(CO)CC[C@]3(C)C(=CC[C@@H]4[C@@]5(C)CCCNC(C)(C)[C@@H]5CC[C@]43C)[C@H]12 | 2.99 | 3.06 | 3.61 | 3.44 | – | 3.29 | – | 3.3 | 1.54 | 1.59 | 3.21 | 1.96 | 1.68 | – | 1.75 | 1.63 | – | 1.69 | 1.58 | 3.39 |
| Cc1ccc(S(=O)(=O)N/N=C/c2c(O)ccc3ccccc23)cc1 | > 100 | > 100 | > 100 | 77.4 | 84.3 | 44.2 | – | > 100 | – | – | 55.3 | – | – | – | – | – | – | – | – | > 100 |
| CCC[CH2][Sn]1([CH2]CCC)[O]C(=O)c2cccnc2[O]1 | 19.9 | 5.21 | 7.64 | 4.11 | 8.57 | 7.27 | 23 | 11.9 | 7.32 | – | – | 2.25 | 1.56 | 1.65 | 3.92 | 2.72 | 10.5 | 2.14 | – | – |
| Oc1ccccc1/C=C/c1csnn1 | > 100 | > 100 | > 100 | > 100 | > 100 | > 100 | > 100 | > 100 | – | – | – | – | – | – | – | – | – | – | – | – |
| COc1cc(C(=O)O[C@H](C(=O)NCCCCCNC(=O)[C@@H](OC(=O)c2cc(OC)cc3c(C)cccc23)[C@]2(C)CO2)[C@]2(C)CO2)c2cccc(C)c2c1 | > 100 | < 0.0338 | – | – | > 100 | 5.25 | 4.09 | – | 2.24 | 0.016 | 0.0913 | – | – | 0.877 | 0.205 | 1.33 | 0.93 | < 0.0143 | < 0.0123 | – |
| OC(c1ccccc1)(c1ccccc1)c1ccncc1 | > 100 | > 100 | > 100 | > 100 | > 100 | – | > 100 | > 100 | – | – | – | – | – | – | – | – | – | – | – | – |
| CCOC(=O)N1CCN(C=S)CC1 | > 100 | > 100 | > 100 | > 100 | – | > 100 | – | > 100 | – | – | – | – | – | – | – | – | – | – | – | – |
| N#CC(NC12CC3CC(CC(C3)C1)C2)c1ccc2c(c1)OCO2 (stereo not drawn) | > 100 | > 100 | > 100 | > 100 | > 100 | – | > 100 | > 100 | – | – | > 100 | – | – | – | – | – | – | – | – | > 100 |
| COc1ccc(/C(COc2ccc3c(=O)cc(-c4ccccc4)oc3c2)=N\O)cc1 | > 50 | 19 | > 35.5 | – | > 41.5 | – | > 50 | > 41.9 | 13.5 | 6.77 | 23.9 | 21.4 | – | 21.5 | 19.5 | – | 17.7 | 9.5 | 9.68 | > 32.2 |
| CP1(=O)CCCCC1 | > 100 | > 100 | > 100 | > 100 | > 100 | – | > 100 | > 100 | – | – | – | – | – | – | – | – | – | – | – | – |
| COc1cc([N+](=O)[O-])c(OC)cc1-c1nc2sc(Cl)cn2c1/C(N)=N/C(=N)N | > 61.8 | > 100 | – | 26.6 | 33.8 | 48.6 | 53.9 | – | 26.2 | 1.9 | 4.64 | – | 5.71 | 5.67 | – | 20.7 | 20.9 | > 56.9 | – | – |
| CC(C)C1CC[C@@H](C)C[C@@]1(O)CC(N)=O (stereo partly drawn) | > 100 | > 100 | > 100 | > 100 | > 100 | – | > 100 | > 100 | – | – | – | – | – | – | – | – | – | – | – | – |
| CN(C)CC/C(=N\Nc1ccc([N+](=O)[O-])cc1)c1ccccc1 | 6.02 | 6.81 | 27.1 | 39.9 | 37.2 | 27.2 | – | 25.3 | – | – | – | – | – | – | – | – | – | – | – | – |
| COc1ccc(C(=O)OC2C(OC3C(O)COC(O[C@H]4C[C@H]5[C@@H]6CC=C7C[C@@H](O)CC[C@]7(C)[C@H]6CC[C@]5(C)[C@H]4[C@H](C)C(=O)CCC(C)C)C3OC(N)=O)OCC(O)C2O)cc1 (stereo partly drawn) | 0.425 | 5.53 | 9.27 | 1.55 | 5.26 | 0.0351 | – | 0.137 | 0.0944 | 0.0346 | 0.547 | 3.14 | 0.182 | 0.475 | 0.033 | 0.00699 | – | 0.471 | 0.00855 | 0.635 |
| CC/C=C1/C(=O)C=C[C@@H]1C/C=C\CCCC(=O)OC | 5.43 | 4.57 | 14.9 | 9.06 | 18 | – | 31.2 | 6.27 | 2.24 | 1.86 | 4.6 | 3.72 | 2.92 | 5.24 | 2.52 | – | 13.7 | 2.27 | 1.21 | 11 |
